Assay results: US10392412B2, “Platinum anticancer agents” (THE REGENTS OF THE UNIVERSITY OF CALIFORNIA, priority 2015, dated 2019)
“Also recorded” adds a separate entry of the source. Where two headings read alike, the source gives them in different places.

Tests used:
A2780 cells = assay: Cytotoxicity CellTiter-Glo; type: cell-based, human; conditions: read-out: IC50 (50% growth inhibition); A2780, Ovary; 72 hours
OVCAR2 cells = assay: Cytotoxicity CellTiter-Glo; type: cell-based, human; conditions: read-out: IC50 (50% growth inhibition); OVCAR2, Ovary; 72 hours
[1] = Maximum tolerated dose study: body weight, food consumption, moribundity, MTD
Method: (§1) The mice used in MTD were given standard chow devoid of added folic acid (low folate diet) (See, Leamon C P et al., J. Pharmacol. Exp. Ther. 327: 918-925). […] Therefore we also designed a MTD study in mice treated with low folate diet. Food consumption on the day before injection (Day −1) was recorded and then it was monitored every other day. […] Blood for clinical chemistry was collected if possible. Liver, kidney and bone marrow were collected. One side of each tissue (except bone marrow) will be fixed in 4-10% formalin for future histology analysis, and the rest of tissue will be cut into pieces, snap frozen, and stored at −80° C. until analysis. Blood samples for clinical chemistry were centrifuged at 8000 rpm for 10 min at 4° C. within 1 hour of collection. Plasma was collected into 1.5 mL eppendorf tubes and stored at −80° C. until analysis. The measured parameters were alanine transaminase (ALT), aspartate transaminase (AST), alkaline phosphatase (ALP), total bilirubin, glucose, blood urea nitrogen (BUN), creatinine, and electrolytes. All experiments were housed in a virus-free, temperature controlled facility on a 12-h light-dark cycle.
(§2) The concentration versus time course of total platinum followed a two-compartment model in the mice. […] In the maximum tolerated dose studies, we observed body weight reduction in all mice due to the low folate diet (FIG. 6).

genomic DNA = assay: Platinum-DNA adducts by ICP-MS in HEK293 cells; type: cell-based, human
Method: Method to quantify platinum-DNA adducts by ICP-MS has been previously described (5,6). In brief, HEK293 cells were seeded in 6-well poly-D-lysine plate (cell density=0.5×10^6 cells/well). […] After 2 hours, the cells were washed twice with cold HBBS. The platinum content associated with genomic DNA was determined as described elsewhere. Genomic DNA was isolated from the cell pellets using Genomic DNA purification kit (Promega) and the DNA-bound platinum was determined by ICP-MS, which was normalized to total DNA content (determined by absorption spectrometry at 260 nm).

[2] = Pharmacokinetics: total platinum in plasma after i.v. tail vein injection; conditions: equimolar doses: SM-69 5 mpk, cisplatin 2 mpk; single i.v. dose, mice
Text: as §2

PE04 cells = assay: Cytotoxicity CellTiter-Glo; type: cell-based, human; conditions: read-out: IC50 (50% growth inhibition); PE04, Ovary; 72 hours
T98G cells = assay: Cytotoxicity CellTiter-Glo; type: cell-based, human
SNB75 cells = assay: Cytotoxicity CellTiter-Glo; type: cell-based, human
SLC19A1 = biological target: T1, SLC19A1 (Homo sapiens, UniProt P41440); assay: IC50 with and without folic acid, transporter SLC19A1 (Table 8); type: cell-based
T1 sequence (P41440 1-591): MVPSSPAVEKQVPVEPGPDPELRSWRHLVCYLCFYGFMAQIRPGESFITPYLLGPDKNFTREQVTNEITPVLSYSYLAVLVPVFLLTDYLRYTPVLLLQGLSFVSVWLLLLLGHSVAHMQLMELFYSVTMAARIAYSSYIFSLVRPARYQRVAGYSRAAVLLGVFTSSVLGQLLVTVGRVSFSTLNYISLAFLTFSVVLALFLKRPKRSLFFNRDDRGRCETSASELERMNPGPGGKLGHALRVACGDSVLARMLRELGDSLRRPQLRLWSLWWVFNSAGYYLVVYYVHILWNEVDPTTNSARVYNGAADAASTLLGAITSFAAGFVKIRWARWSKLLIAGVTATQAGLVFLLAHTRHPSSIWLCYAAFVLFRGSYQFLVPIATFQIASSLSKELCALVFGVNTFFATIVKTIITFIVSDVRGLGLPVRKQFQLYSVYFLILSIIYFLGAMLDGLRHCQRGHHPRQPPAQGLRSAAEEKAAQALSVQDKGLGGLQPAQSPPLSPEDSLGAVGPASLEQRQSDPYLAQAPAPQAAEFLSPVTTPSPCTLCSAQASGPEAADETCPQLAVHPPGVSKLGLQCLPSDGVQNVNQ

[3] = Maximum tolerated dose study: clinical chemistry evaluation (blood cell parameters, Table 6)
Method: as §1

Substance: [Pt(DMSO)methotrexate(Cl)] [SM-69]
- IC50 (A2780 cells): 1.2 ± 0.2 µM
- IC50 (OVCAR2 cells): 3.3 ± 1.6 µM
- body weight reduction compared with saline and vehicle treated ([1]; 2.5 mg/kg once a week, low folate diet): similar
- Body weight (% of vehicle) over 30-days ([1]; 2.5, 5, 7.5 mpk): significant body weight loss
- cumulative food consumption over 30-days ([1]; 2.5, 5, 7.5 mpk, mouse model): dose-dependently alter food consumption
- maximum tolerated dose ([1]; i.v. once a week, mice on low folate diet): approximately 5 mg/kg
- platinum content associated with genomic DNA, dose dependence (genomic DNA): higher with higher doses
- platinum content associated with genomic DNA (platinum-DNA adducts) (genomic DNA; 10 μM, 2 hours): form platinum-DNA adducts similarly to cisplatin
- total platinum levels in plasma compared with cisplatin [2]: higher plasma levels of total platinum; also recorded: significantly higher than cisplatin
- IC50 (PE04 cells): 4.9 ± 2 µM
- IC50 (T98G cells; read-out: IC50 (50% growth inhibition), Brain, 72 hours): 40.8 ± 42.6 µM
- IC50 (T98G cells; read-out: IC50 ± S.D. (50% growth inhibition), Brain - High grade, + 1 mM Folic Acid): 1.9 ± 0.03 µM
- IC50 (T98G cells; read-out: IC50 ± S.D. (50% growth inhibition), Brain - High grade, two independent experiments): 0.09 ± 0.007 µM
- IC50 (SNB75 cells; read-out: IC50 (50% growth inhibition), SNB75, Brain, 72 hours): 6.1 ± 4.6 µM
- IC50 (SNB75 cells; read-out: IC50 ± S.D. (50% growth inhibition), SNB75, Brain - High grade, + 1 mM Folic Acid): 46.3 ± 20.2 µM
- IC50 (SNB75 cells; read-out: IC50 ± S.D. (50% growth inhibition), SNB75, Brain - High grade, two independent experiments): 8.7 ± 6.4 µM
- IC50 (SLC19A1; Folic acid (1 mM), read-out: IC50 with substrate or inhibitor): 42.7 ± 4.11 µM
- IC50 (SLC19A1; without substrate or inhibitor, read-out: IC50): 13.5 ± 1.62 µM
- RDWa ([3]; 2.5 mpk i.v. once a week): 30.35
- granulocytes (GRAN %) ([3]; 2.5 mpk i.v. once a week): 31.88%
- granulocytes (GRAN) ([3]; 2.5 mpk i.v. once a week): 3.55
- hematocrit (HCT) ([3]; 2.5 mpk i.v. once a week): 46.20
- hemoglobin (HGB) ([3]; 2.5 mpk i.v. once a week): 16.20
- lymphocytes (LYM %) ([3]; 2.5 mpk i.v. once a week): 60.70%
- lymphocytes (LYM) ([3]; 2.5 mpk i.v. once a week): 6.65
- mean corpuscular hemoglobin (MCH) ([3]; 2.5 mpk i.v. once a week): 15.65
- mean corpuscular hemoglobin concentration (MCHC) ([3]; 2.5 mpk i.v. once a week): 35.08
- mean corpuscular volume (MCV) ([3]; 2.5 mpk i.v. once a week): 44.68
- mean platelet volume (MPV) ([3]; 2.5 mpk i.v. once a week): 6.68
- monocytes (MONO %) ([3]; 2.5 mpk i.v. once a week): 7.43%
- monocytes (MONO) ([3]; 2.5 mpk i.v. once a week): 0.83
- platelet count (PLT) ([3]; 2.5 mpk i.v. once a week): 193.00
- red blood cell count (RBC) ([3]; 2.5 mpk i.v. once a week): 10.34
- red cell distribution width (RDW %) ([3]; 2.5 mpk i.v. once a week): 21.53%
- white blood cell count (WBC) ([3]; 2.5 mpk i.v. once a week): 11.03
- RDWa ([3]; 5 mpk i.v. once a week): 30.10
- granulocytes (GRAN %) ([3]; 5 mpk i.v. once a week): 33.28%
- granulocytes (GRAN) ([3]; 5 mpk i.v. once a week): 3.55
- hematocrit (HCT) ([3]; 5 mpk i.v. once a week): 47.65
- hemoglobin (HGB) ([3]; 5 mpk i.v. once a week): 17.08
- lymphocytes (LYM %) ([3]; 5 mpk i.v. once a week): 58.70%
- lymphocytes (LYM) ([3]; 5 mpk i.v. once a week): 6.38
- mean corpuscular hemoglobin (MCH) ([3]; 5 mpk i.v. once a week): 15.73
- mean corpuscular hemoglobin concentration (MCHC) ([3]; 5 mpk i.v. once a week): 35.83
- mean corpuscular volume (MCV) ([3]; 5 mpk i.v. once a week): 43.95
- mean platelet volume (MPV) ([3]; 5 mpk i.v. once a week): 6.83
- monocytes (MONO %) ([3]; 5 mpk i.v. once a week): 8.03%
- monocytes (MONO) ([3]; 5 mpk i.v. once a week): 0.88
- platelet count (PLT) ([3]; 5 mpk i.v. once a week): 182.25
- red blood cell count (RBC) ([3]; 5 mpk i.v. once a week): 10.86
- red cell distribution width (RDW %) ([3]; 5 mpk i.v. once a week): 21.93%
- white blood cell count (WBC) ([3]; 5 mpk i.v. once a week): 10.80
- RDWa ([3]; 7.5 mpk i.v. once a week): 29.67
- granulocytes (GRAN %) ([3]; 7.5 mpk i.v. once a week): 36.03%
- granulocytes (GRAN) ([3]; 7.5 mpk i.v. once a week): 4.40
- hematocrit (HCT) ([3]; 7.5 mpk i.v. once a week): 45.47
- hemoglobin (HGB) ([3]; 7.5 mpk i.v. once a week): 16.23
- lymphocytes (LYM %) ([3]; 7.5 mpk i.v. once a week): 56.53%
- lymphocytes (LYM) ([3]; 7.5 mpk i.v. once a week): 7.07
- mean corpuscular hemoglobin (MCH) ([3]; 7.5 mpk i.v. once a week): 15.63
- mean corpuscular hemoglobin concentration (MCHC) ([3]; 7.5 mpk i.v. once a week): 35.73
- mean corpuscular volume (MCV) ([3]; 7.5 mpk i.v. once a week): 43.80
- mean platelet volume (MPV) ([3]; 7.5 mpk i.v. once a week): 6.40
- monocytes (MONO %) ([3]; 7.5 mpk i.v. once a week): 7.43%
- monocytes (MONO) ([3]; 7.5 mpk i.v. once a week): 0.93
- platelet count (PLT) ([3]; 7.5 mpk i.v. once a week): 171.33
- red blood cell count (RBC) ([3]; 7.5 mpk i.v. once a week): 10.38
- red cell distribution width (RDW %) ([3]; 7.5 mpk i.v. once a week): 21.87%
- white blood cell count (WBC) ([3]; 7.5 mpk i.v. once a week): 12.40
